According to patent US20120302569A1, “PHENYL-THIAZOLYL INHIBITORS OF PRO-MATRIX METALLOPROTEINASE ACTIVATION” (priority 2011, published 2012):

Assays:
[1] = molecular target: T1, proMMP9 (Homo sapiens, UniProt P14780); assay: Activation of proMMP9 by human fetal lung fibroblast (HFL-1) cultures (Western blot); type: cell-based; settings: 3.3 μM Compound α
T1 construct: host or cells: HFL-1 human fetal lung fibroblasts
Experimental: Activation of proMMP9 by Human Fetal Lung Fibroblast Cultures
Compound α was assessed additionally for ability to block the maturation of proMMP9 to active MMP9 in cultures of human fetal lung fibroblasts (HFL-1, American Type Culture Collection #CCL-153). Unlike rat synoviocytes, HFL-1 cells were unable to process proMMP9 to the active form without addition of neutrophil elastase. […] Rather, the function of elastase in this assay may be to inactivate tissue inhibitors of matrix metalloproteinases (TIMPs) that repress endogenous pathways of MMP9 activation (Am J Respir Crit. Care Med; 1999; 159:1138-46).
HLF-1 were maintained in monolayer culture in DMEM with 10% FCS and were used between passage numbers 5-15. HLF-1 were embedded in collagen gels as described for rat SCW synoviocytes (vida supra). Half mL gels containing 0.4 million cells were dislodged into wells of 12 well Costar plates containing 1 mL/well of DMEM adjusted to contain 0.05% BSA and 100 ng/mL human TNFα (R&D Systems Cat #210-TA/CF). After overnight culture (37° C. and 5% CO2) wells were adjusted to contain an additional 0.5 mL of DMEM containing 0.05% BSA and with or without 13.2 μM Compound α (final concentration was 3.3 μM Compound α). Next, cultures were adjusted to contain 30 nM human elastase (Innovative Research). The plates were cultured an additional 72 hrs, at which time MMP9 secreted into the conditioned media was bound to gelatin-sepharose and evaluated by Western blot analysis as described for the rat synoviocyte cultures (vida supra). mAb-51/82 detected three forms of MMP9 in HFL-1 cultures.
A second experiment was performed to determine if the 80 kD form was mature active MMP9 and to determine the potency of Compound α as an inhibitor of MMP9 maturation in this assay. HFL-1 cells embedded in collagen gels were cultured as described above in the presence of TNFα overnight and the cultures were then adjusted to contain 30 nM elastase and graded concentrations of Compound α for an additional 72 hrs at which time MMP9 secreted into the conditioned media was bound to gelatin-sepharose and evaluated by Western blot analysis for active MMP9 using pAb-1246 raised against the N-terminal neoepitope of active MMP9 (Table 5). In the absence of Compound α, pAb-1246 readily detected MMP9 with an electrophoretic mobility of approximately 80 kD. […] Inhibition occurred over a dose range with an IC50 of approximately 0.3 μM Compound α.

[2] = tested on: rats with SCW-induced arthritis; assay: Efficacy in rats with SCW arthritis (ankle thickness, clinical scores); type: in vivo, rat
Excerpt: A polyarthritis can be induced in female Lewis rats following i.p. administration of streptococcal cell wall (SCW) proteoglycan-polysaccharides (PG-PS) (J Exp Med 1977; 146:1585-1602). The model has an acute phase (days 3-7) that is complement and neutrophil-dependent and that resolves. A chronic erosive phase begins at about day ten and is dependent on the development of specific T cell immunity to the PG-GS, which resists digestion and remains present in synovial macrophages for months. Like rheumatoid arthritis, SCW-induced arthritis is reduced by TNF inhibitors, and the dependence of SCW-induced arthritis on macrophages (Rheumatology; 2001; 40:978-987) and the strong association of rheumatoid arthritis severity with synovial-tissue macrophage counts (Ann Rheum Dis; 2005; 64:834-838) makes SCW-arthritis an attractive model for testing potential therapeutic agents. SCW PG-PS 10S (Beckton Dickinson Cat#210866) suspended in saline was vortexed for 30 seconds and sonicated for 3 min with a probe type sonicator prior to injection. Female Lewis (LEW/N) rats, 5-6 weeks of age (80-100 g) were injected (i.p.) with SCW PG-PS (15 μg of rhamnose/gram BW) in the lower left quadrant of the abdomen using a 1 mL syringe fitted with a 23-gauge needle. Control (disease-free) rats were treated in a similar manner with sterile saline. Control rats were sacrificed on day 5 and groups of SCW-injected rats were sacrificed on day 5 when acute inflammation was maximal or on day 18 when chronic inflammation was established.
To induce arthritis, Female Lewis (LEW/N) rats, 5-6 weeks of age (80-100 g) were injected (i.p.) with SCW PG-PS as described above. Eighteen days later, arthritis was well established. Calipers were used to measure the width (anterior to posterior surface) of the left and right hind ankles of each rat. Each ankle was measured 3 times and averaged, and treatment groups were randomized based on ankle thickness (Table 6). Commencing on day 18, randomized groups of arthritic rats (n=5 rats/group) received vehicle or 5, 20, or 50 mg/kg Compound α BID by oral gavage. Vehicle consisted of an aqueous mixture containing 2% (v:v) N-methylpyrrolidone, 5% (v:v) glycerine, and 20% (w:v) captisol. Treatment continued daily through the morning of day 26.
Hind paw inflammation clinical scores were assigned based on swelling and erythema.

[3] = molecular target: T2, MMP9 (Rattus norvegicus, UniProt P50282); assay: Active MMP9 in ankles of rats with SCW-induced arthritis by Western blot; type: in vivo; settings: day 26, four hours after AM dose; FIG. 3A lanes 4-9
T2 construct: Pro and active MMP9 were abundantly present in ankles of SCW-induced vehicle-treated rats; from tissue; host or cells: tibia-tarsus joints (ankles) of female Lewis rats
Experimental: Hind-limbs were skinned, severed just above the tibia-tarsus joint and below the metatarsals, and the tibia-tarsus joints (ankles) were weighed, snap frozen and pulverized on dry ice using a hammer and anvil. The pulverized tissue was suspended in 3 volumes (w:v) of ice-cold homogenization buffer containing 50 mM Tris pH 7.5, 150 mM NaCl, 5 mM EDTA, 1% Triton X100, 0.05% Brij 30, 10% dimethylsulfoxide and Complete EDTA-free Protease Inhibitor Cocktail (Roche Diagnostics). The suspended tissue was homogenized sequentially with a Kinematica AG Polytron and a Dounce homogenizer. Homogenates were centrifuged at 16,000×g for 10 min at 4° C. and the soluble fractions were saved. Dimethylsulfoxide was removed from a portion of each soluble fraction using PD MiniTrap™ G-25 desalting columns (GE Healthcare). Homogenates (0.25 mL), free of DMSO, were diluted with an equal volume of binding buffer (i.e., homogenization buffer without dimethylsufoxide) and adjusted to contain 50 μL of a 50% slurry of gelatin-conjugated sepharose. Following 2 hours of rotation at 4° C. the beads were washed twice in binding buffer and eluted in 100 μL 2×-reducing Laemmli buffer with heating to 95° C. for 5 minutes. […]

T1 sequence (P14780 20-707 limits assumed): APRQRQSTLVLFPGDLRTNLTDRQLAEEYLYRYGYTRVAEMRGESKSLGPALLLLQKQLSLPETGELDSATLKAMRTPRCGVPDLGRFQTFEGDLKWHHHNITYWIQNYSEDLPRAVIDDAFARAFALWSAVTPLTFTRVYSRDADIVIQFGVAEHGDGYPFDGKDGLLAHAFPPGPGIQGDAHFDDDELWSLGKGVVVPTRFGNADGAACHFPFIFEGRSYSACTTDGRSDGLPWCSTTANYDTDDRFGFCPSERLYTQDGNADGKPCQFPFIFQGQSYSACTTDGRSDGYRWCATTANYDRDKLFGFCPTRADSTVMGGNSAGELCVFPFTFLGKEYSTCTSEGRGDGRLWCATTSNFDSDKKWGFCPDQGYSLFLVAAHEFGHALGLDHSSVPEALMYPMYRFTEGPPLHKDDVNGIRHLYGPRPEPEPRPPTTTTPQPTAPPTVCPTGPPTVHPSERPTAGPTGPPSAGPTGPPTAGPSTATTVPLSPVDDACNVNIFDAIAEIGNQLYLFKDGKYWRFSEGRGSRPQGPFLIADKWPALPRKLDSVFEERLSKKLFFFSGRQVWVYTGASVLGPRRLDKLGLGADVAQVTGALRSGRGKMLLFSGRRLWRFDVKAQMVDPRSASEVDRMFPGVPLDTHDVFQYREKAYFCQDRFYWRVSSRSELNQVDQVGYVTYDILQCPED
T2 sequence (P50282 108-708): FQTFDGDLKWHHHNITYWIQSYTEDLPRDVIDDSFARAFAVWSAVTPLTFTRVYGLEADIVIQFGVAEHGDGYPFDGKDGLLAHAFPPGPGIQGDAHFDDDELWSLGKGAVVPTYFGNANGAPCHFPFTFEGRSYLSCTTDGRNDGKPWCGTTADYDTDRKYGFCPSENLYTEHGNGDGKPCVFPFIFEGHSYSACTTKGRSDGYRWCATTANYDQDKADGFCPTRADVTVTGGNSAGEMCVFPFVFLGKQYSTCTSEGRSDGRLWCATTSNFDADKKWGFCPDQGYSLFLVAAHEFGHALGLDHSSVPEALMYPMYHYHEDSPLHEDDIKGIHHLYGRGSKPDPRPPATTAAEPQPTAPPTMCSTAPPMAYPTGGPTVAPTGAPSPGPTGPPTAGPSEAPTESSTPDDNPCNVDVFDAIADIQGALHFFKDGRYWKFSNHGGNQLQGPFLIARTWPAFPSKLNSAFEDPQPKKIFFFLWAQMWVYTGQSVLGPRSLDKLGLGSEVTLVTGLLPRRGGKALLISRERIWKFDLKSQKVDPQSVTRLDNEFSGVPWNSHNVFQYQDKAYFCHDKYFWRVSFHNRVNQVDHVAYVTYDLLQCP

Q: What does the source list for `Cc1nc(C)c(-c2csc(Nc3cc(S(N)(=O)=O)ccc3OC(C)C)n2)s1` [Compound α, 3-(2′,4′-Dimethyl-[4,5′]bithiazolyl-2-ylamino)-4-isopropoxy-benzenesulfonamide.HBr]?
A: Percent of total signal 80 kD [1]: 7%; Percent of total signal 86 kD [1]: 47%; Percent of total signal 100 kD [1]: 46%; Signal Total ([1]; 30 nM elastase, 72 hrs, mAb-L51/82): 91346 INT*mm^2; ankle thickness measurements ([2]; 5, 20, 50 mg/kg BID oral, Day 18-26): dose-dependent decrease; clinical score measurements ([2]; 5, 20, 50 mg/kg BID oral, significant effects emerging at 20 mg/kg): dose dependent decrease; inhibition at 5 mg/kg ([2]; Rattus norvegicus, 5 mg/kg BID oral, Day 18-26, read-out: Day 26 % Inh of disease associated increase in ankle thickness): 27%; inhibition at 20 mg/kg ([2]; Rattus norvegicus, 20 mg/kg BID oral, Day 18-26, read-out: Day 26 % Inh of disease associated increase in ankle thickness): 37%; inhibition at 50 mg/kg ([2]; Rattus norvegicus, 50 mg/kg BID oral, Day 18-26, read-out: Day 26 % Inh of disease associated increase in ankle thickness): 46%; abundance of proMMP9 in ankles [3]: did not reduce
